According to patent US20090232771A1, “Method of controlling cell functions” (Takeda Pharmaceutical Company Limited, priority 2004, published 2009):

B1: oncostatin M (protein, UniProt P13725 26-221, looked up)
Oncostatin-M: AAIGSCSKEYRVLLGQLQKQTDLMQDTSRLLDPYIRIQGLDVPKLREHCRERPGAFPSEETLRGLGRRGFLQTLNATLGCVLHRLADLEQRLPKAQDLERSGLNIEDLEKLQMARPNILGLRNNIYCMAQLLDNSDTAEPTKAGRGASQPPTPTPASDAFQRKLEGCRFLHGYHRFMHSVGRVFSKWGESPNRSRR
notes: differentiation induction factor for osteoblasts from human mesenchymal stem cells in serum-free medium

Columns and labels:
[1] = test system: human mesenchymal stem cells; assay: Differentiation of human mesenchymal stem cells into adipocytes, Oil Red O staining of accumulated intracellular lipids; format: cell-based; settings: cholecystokinin 100 nM in differentiation induction medium; compared to cholecystokinin-free control; FIG. 1
Protocol: Human mesenchymal stem cells were incubated in a 24-well culture plate until the cells became confluent. Then, the medium was exchanged with a differentiation induction medium prepared by adding cholecystokinin (100 nM) to high-glucose DMEM medium supplemented with insulin, dexamethasone, isobutylmethylxanthine, indomethacin, antibiotic and 10% fetal bovine serum, and incubation was continued for 3 days. For control, a cholecystokinin-free differentiation induction medium was used. After incubation was conducted for 3 days in a high-glucose DMEM medium (adipocyte maintenance medium) supplemented only with insulin, antibiotic and 10% fetal bovine serum, the same treatments (the induction and the maintenance, respectively, for 3 days) were repeated. Accumulated intracellular lipids were visualized by staining with Oil Red 0 dye.

[2] = test system: human mesenchymal stem cells; assay: Osteoblast differentiation induction from human mesenchymal stem cells, accumulated calcium level per well (Calcium C-Test); format: cell-based; settings: oncostatin M added (10 ng/ml); irrespective of presence or absence of FBS; compared to 10% FBS-containing differentiation medium without oncostatin M; FIG. 2
Protocol: Human mesenchymal stem cells were purchased from Cambrex, Inc. Dulbecco's Modified Eagle Medium (DMEM, Invitrogen) containing 1.0 g/l of glucose and supplemented with 10% fetal bovine serum (Stem Cell Technologies), 2 mM L-glutamine (Invitrogen), 100 U/ml penicillin and 100 μg/ml streptomycin was used as a maintenance medium. The maintenance medium supplemented with 0.1 μM dexamethasone, 0.05 mM ascorbic acid and 10 mM β-glycerophosphate (=10% FBS-containing differentiation medium) or fetal bovine serum-free maintenance medium supplemented with the three components above was used as a differentiation medium (=serum-free differentiation medium). […] Subsequently, the medium was exchanged every 4 days, and the accumulated calcium level per well was quantified on day 10 of the incubation (Calcium C-Test, Wako Pure Chemical).

| Molecule | lipid accumulation (accumulated intracellular lipids, Oil Red O staining) compared to control [1] | accumulation of calcium per well on day 10 of the incubation [2] |
| --- | --- | --- |
| cholecystokinin (DYMGWMDF) [ligand of the cholecystokinin receptor] | lipid accumulation is enhanced | – |
| B1 | – | marked accumulation of calcium was observed |
